Molecules are shown by their SMILES.

The source of these data is the RepoRT retention time repository.

A short description of the data set: A: acetonitrile + 0.1% formic acid + 10 mM ammonium formate; B: 5% water + 95% acetonitrile + 0.1% formic acid + 10 mM ammonium formate; gradient (min/%B) 0/10 2/10 22/100 27/100 27.1/10. The note with it: stereoisomer not certain.

`OCC1OC(OC2(CO)OC(CO)C(O)C2O)C(O)C(O)C1O` (centres undefined) [Sucrose]: the LC retention time is 6.27 min.
To `Cc1cnc(NC(=O)C2=C(O)c3ccccc3S(=O)(=O)N2C)s1` [Meloxicam] belongs 0.416 min; to `COc1ccc2[nH]cc(CC(N)C(=O)O)c2c1` (racemic) [5-Methoxy-DL-tryptophan], 4.49 min.
The value for `NC(=O)C[C@H](N)C(=O)O` [L-Asparagine] was 6.65 min; that for `O=c1ccn(C2CC(O)C(CO)O2)c(=O)[nH]1` (centres undefined) [2'-Deoxyuridine] was 1.23 min; that for `CC(=O)NCCCC(=O)O` [4-(Acetylamino)butanoic acid] was 1.23 min.
For `CCOC(=O)C1=C(COCCN)NC(C)=C(C(=O)OC)C1c1ccccc1Cl` (centres undefined) [Amlodipine], the LC retention time amounted to 2.02 min.
As for `Cc1cnc(C(=O)NCCc2ccc(S(=O)(=O)NC(=O)NC3CCCCC3)cc2)cn1` [Glipizide], the LC retention time turned out to be 0.463 min.
The value for `NC(CCCC(=O)O)C(=O)O` (centres undefined) [Aminoadipic acid] was 6.5 min; that for `NCCCCC(NC(CCc1ccccc1)C(=O)O)C(=O)N1CCCC1C(=O)O` (centres undefined) [Lisinopril] was 6.87 min.
To `CCCc1nc(C)c2c(=O)[nH]c(-c3cc(S(=O)(=O)N4CCN(CC)CC4)ccc3OCC)nn12` [Vardenafil] belongs 1.08 min; to `O=C(O)CCCCC1SCC2NC(=O)NC21` (centres undefined) [Biotin], 1.17 min.
Consider `CC(=O)c1c(O)cc(C)oc1=O` [DehydroacetIc acid], for which the LC retention time worked out at 0.444 min.
The value for `CC(=O)NC(CCCCN)C(=O)O` [N-alpha-Acetyl-L-lysine] was 6.17 min; that for `CC(CCC(=O)NCC(=O)O)C1CCC2C3C(O)CC4CC(O)CCC4(C)C3CC(O)C12C` (centres undefined) [Glycocholic acid] was 4.17 min; that for `Nc1ncnc2nc[nH]c12` [Adenine] was 2 min.
To `CC(C)C[C@H](NC(=O)CN)C(=O)O` [Glycyl-L-leucine] belongs 5.81 min; to `N[C@@H](Cc1cnc[nH]1)C(=O)O` [L-Histidine], 7.73 min; to `O=C(O)CNC(=O)c1ccccc1` [Hippuric acid], 1.59 min.
With `NC(=O)NC1NC(=O)NC1=O` (centres undefined) [Allantoin], the LC retention time was found to be 3.1 min.
The value for `COc1ccc(OC)c(C(O)C(C)N)c1` (centres undefined) [Methoxamine] was 2.4 min; that for `CC(N)c1ccccc1` (stereo not drawn) [alpha-Methylbenzylamine] was 2.3 min; that for `CN=C(NC#N)NCCSCc1nc[nH]c1C` [Cimetidine] was 2.59 min.
To `Nc1ncnc2c1ncn2C1OC(CO)C(O)C1O` (centres undefined) [Adenosine] belongs 2.08 min; to `CCN(CC)CCOc1ccc(C(=C(Cl)c2ccccc2)c2ccccc2)cc1` [Clomiphene], 0.799 min.
The value for `CC(=O)N[C@@H](CCCN=C(N)N)C(=O)O` [N-Acetyl-L-arginine] was 6.21 min; that for `O=C(O)CNC(=O)c1ccccc1O` [2-Hydroxy Hippuric Acid] was 1.14 min.
Consider `NC1(C(=O)O)CC1` [1-Aminocyclopropanecarboxylic acid], for which the LC retention time is 6.03 min.
The value for `CCCCCCCC(=O)NCC(=O)O` [Capryloyl glycine] was 0.943 min; that for `CCC1=C(C)CN(C(=O)NCCc2ccc(S(=O)(=O)NC(=O)NC3CCC(C)CC3)cc2)C1=O` (centres undefined) [Glimepiride] was 0.44 min; that for `CN(C)CCOC(c1ccccc1)c1ccccc1` [Diphenhydramine] was 0.944 min.
The value for `CCCC(=O)Nc1ccc(OCC(O)CNC(C)C)c(C(C)=O)c1` (centres undefined) [Acebutolol] was 2.28 min.
Consider `NC(=O)Cc1c[nH]c2ccccc12` [Indole-3-acetamide], for which the LC retention time was found to be 0.475 min.
Consider `O=c1c(-c2ccc(O)cc2)coc2cc(O)cc(O)c12` [Genistein], for which the LC retention time is 0.458 min.
